Results on one compound are retold here after patent US8686178B2, “Derivative of 18β-glycyrrhetinic acid apt to suppress cancer cells” (Kaohsiung Medical University, priority 2011, dated 2014).

Series [1] relates to human prostate cancer cell line PC3. In words: Trial (B): MTT cytotoxicity assay, 72 hours. In kind it is cell-based. To be noted: 0-50 μM. The source says: (§1) For the sake of proving therapeutic effects of the derivatives of 18β-glycyrrhetinic acid of the present invention, including 10, 11, 13-17 and 21-25, in treating of cancer, human bladder cancer cell line NTUB1, human prostate cancer cell line PC3 cataloged as CRL-1435 (reference to J. Formosan Med. Assoc. 1992; 91:608-13), and immortalized normal human urothelial cells SV-HUC1 cataloged as CRL-9520 are purchased from American Type Culture Collection (ATCC; Rockville, USA) and maintained in a culturing medium respectively till at a preferable density to carry out a serial of trials (comprising trial A to G) for evaluating cytotoxicities of the derivatives of 18β-glycyrrhetinic acid against cancer cells, and mechanisms thereof. […]
(§2) In trial (B), the cell lines of NTUB1, PC3, and SV-HUC1 are prepared in 96-well plates and co-incubated with the compounds 21, 23 or 25 in various concentrations of 0, 0.3, 1, 3, 5, 10, 30 and 50 μM, to analyze cytotoxic effects against either cancer cell or normal cells via a modified 3-[4,5-dimethylthiazol-2-yl]-2,5-diphenyltetrazolium bromide (MTT, Sigma Chemical Co.) assay. […] At co-incubation, 50 μL of MTT (2 mg/mL in PB) is added to each well to react for 3 hours, followed by centrifugating the 96-well plates at 1000 g for 10 min to remove supernatant, adding 150 μL DMSO in each well of the 96-well plates, and determining viability rates of the NTUB1, PC3, and SV-HUC1 cells separately by an absorbance spectrometry at 540 nm with a MRX (DYNEXCO) microplate reader.
A general note: Tetrazolium assays rely on reduction of a dye to a coloured formazan, in cell work by metabolically active cells.

The test system of series [2] is immortalized normal human urothelial cells SV-HUC1. In words: Trial (B): MTT assay on normal cells, 72 hours. In kind it is cell-based. To be noted: 0-50 μM.
Excerpt: as §1, §2

Series [3] concerns NTUB1 cells. In words: Trial (D): production of reactive oxygen species by flow cytometry (DCF). In kind it is cell-based, human. To be noted: 24 hours. The protocol: In trial (D), production of reactive oxygen species (ROS) is analyzed by flow cytometry, since the levels of ROS play an important role in apoptosis.
Referring to TABLE 4, the NTUB1 cells at a density of 8×10^5 cells/ml are prepared and assigned into 5 groups, including D1 to D5, to incubate in various medium for 24 hours. Next, 10 μM of 2,7-dichlorodihydrofluorescein diacetate (H2DCFHDA; Molecular Probes, Eugene, Oreg.) is added to the NTUB1 cells of each group 30 minutes prior than harvest, followed by collecting the NTUB1 cells of each group respectively and washing with PBS buffer. With such arrangement, the 2,7-dichlorodihydrofluorescein diacetate will penetrate into cells, interact with esterase, and degrade to 2,7-dichlorofluorescein (DCF) having green fluorescein, which can be determined by flow cytometer. In trial (D), green fluorescence of intracellular DCF in each group are analyzed immediately by FACScan flow cytometer (Becton Dickinson) at a wavelength of 525 nm.
(Flow cytometry measures light scatter and fluorescence of single cells or particles in a stream.)

The test system of series [4] is NTUB1 cells. Nature of the series: Trial (E): cell cycle progression by flow cytometry (propidium iodide). In kind it is cell-based, human. Conditions: for G1 / G2/M / S / Sub-G1: 24 hours. More on the design: Sub-G1 / G1: unit not given here. The method, then:
In order to determine a relationship between the derivatives of 18β-glycyrrhetinic acid of the present invention and cell cycle arrest, trial (E) is carried out by analyzing cell cycle progression by flow cytometry. […] After that, cell cycle progression of each group is determined respectively by incubating with 50 μg/mL propidium iodide (Sigma, Co) and 50 μg/mL RNase A (Sigma, Co) in PBS at room temperature for 30 min, and analyzing by FACScan flow cytometer and Cell Quest sofeware.

In series [5] the test system is NTUB1 cells. Nature of the series: Trial (F): mitochondrial membrane potential (JC-1) by flow cytometry. To be noted: for R1 (%): 30 minutes, JC-1, NTUB1. In kind it is cell-based, human. The protocol:
In trial (F), mitochondrial membrane potential (MMP) in NTUB1 cells is measured according to a journal article published by Martin et al., at 2009 in PloS one, in which a dysfunction of the mitochondria caused by ROS induced MPP decrease is supposed.
Referring to TABLE 6, the NTUB1 cells at a density of 3×10^5 cells/ml are prepared and assigned into 5 groups, including F1 to F5, to incubate in 10 μM carbonyl cyanide 3-chlorophenylhydrazone (CCCP), and 10, 25 and 50 μM of 25 respectively, for 30 minutes, followed by adding 1 μM of 5,5′,6,6′-tetrachloro-1,1′,3,3′-tetraethylbenzimidaolylcarbocyanine iodide (JC-1) (Molecular Probes, Eugene, Oreg., USA) in each group. Then, the NTUB1 cells in each group are washed with PBS buffer for 3 times, collected in PBS/2% BSA, washed twice by centrifugating at 800 g, 5 minutes and resuspending in 0.3 mL PBS/2% BSA, and finally analyzed by a FACSCalibur flow cytometer (Becton Dickinson), with the FACSCalibur flow cytometer determining and calculating a ratio of JC-1 aggregates (red fluorescence) to JC-1 monomers (green fluorescence) based on levels of MMP in each group.

For the compound `C=C(C)[C@@H]1CC[C@]2(C)[C@H](C(=O)C=C3[C@@H]4C[C@@](C)(C(=O)NC(C)C)CC[C@]4(C)CC[C@]32C)[C@@]1(C)CCC(=O)NC(C)C` [Compound 25, 3,4-seco-11-oxo-18β-olean-4(23),12-dien-3,30-diisopropyl carbamate], the “cytotoxic effect (survival ratio, FIGS. 4-6)” value in series [1] is reported as “cytotoxic effects against to the cancer cells in a dose-dependent manner”. Further, the “effect on growth of normal cells (survival ratio, FIGS. 4-6)” value in series [2] is reported as “enhance the growth of SV-HUC1 cells”. Also, the results for the “ROS (%)” value with NTUB1 cells [3] (10 μM) and in the series with NTUB1 cells [3] (25 μM) were 66.1% and 85.6%, respectively. The G1 in the series on NTUB1 cells [4] (25 μM, NTUB1) is 49.51; in the series on NTUB1 cells [4] (50 μM, NTUB1), 35.72; with NTUB1 cells [4] (75 μM, NTUB1), 14.69. The G2/M is recorded as 12.68 in the series on NTUB1 cells [4] (25 μM, NTUB1); 5.22 in the series on NTUB1 cells [4] (50 μM, NTUB1); 4.00 in the series on NTUB1 cells [4] (75 μM, NTUB1). The S in the series on NTUB1 cells [4] (25 μM, NTUB1) is reported as 12.69; with NTUB1 cells [4] (50 μM, NTUB1), 3.15; in the series on NTUB1 cells [4] (75 μM, NTUB1), 2.79. Besides, the Sub-G1 was 20.39 with NTUB1 cells [4] (25 μM, NTUB1); 55.71 in the series with NTUB1 cells [4] (50 μM, NTUB1); 78.39 in the series on NTUB1 cells [4] (75 μM, NTUB1). In addition, the “cell cycle arrest” value in the series on NTUB1 cells [4] (25, 50 and 75 μM, NTUB1) is reported as “does not induce cell cycle arrest”. In addition, the “population of sub-G1 phase” value in the series with NTUB1 cells [4] (25, 50 and 75 μM, NTUB1) is “induce the population of sub-G1 phase to cancer cells in dose-dependent manner”. Also, in the series with NTUB1 cells [4] (NTUB1 exposed to compound), the “S phase cells” value was “a decrease of S phase cells”. Besides, the “R1 (%)” value was 94.14% with NTUB1 cells [5] (10 μM), 87.17% in the series with NTUB1 cells [5] (25 μM) and 55.65% in the series with NTUB1 cells [5] (50 μM). Besides, in the series with NTUB1 cells [5] (NTUB1, TABLE 6), the “mitochondrial membrane potential” value is given as “decrease MPP in cancer cells in a dose-dependent manner”.
